Several values for one entry are separate records, joined by “and”; a condition that tells them apart may be missing. Equal entries are not always repeated.
Assay: radiation dosimetry (OLINDA/EXM) from baboon PET data
Format: Reference Adult Male based on baboon PET imaging data
Procedure: For each time-point, the activity concentration (in Bq/cm^3) was measured in each of the 14 delineated organs and multiplied by the organ volume to obtain the total activity per time point per organ. The measured values were then decay-corrected and divided by the baboon organ mass, determined by the CT density and volume from the drawn contours, and the injected radioactivity to obtain the fraction of initial radioactivity per gram (FIA/g) for each time point and each organ. The baboon FIA/g values were then converted to human FIA (per organ) using the following equation (Schwartz et al., 2011; Woodard et al., 1975): […]
That approach assumes that the concentration of activity in a particular tissue relative to the overall concentration in the whole body is preserved across species (i.e., organ concentration/total body concentration is the same for baboon and man). The resulting human FIA values were plotted as a function of time (nine data points) for each organ and fit to a bi-exponential expression: FIA(t)=A1.e^−(λ1^bio^.t)+A2.e^−(Δ2^bio^.t) (2)
where A1, A2, λ1bio, and λ2bio are fit parameters. The sum of A1 and A2 give the back-extrapolated, time-zero fraction of administered radioactivity in each organ, and λ1bio and λ2bio are the biological clearance constants. The equation for the time-integrated activity coefficient [TIAC, previously known as residence time (Bolch et al., 2009) for each source organ was obtained, as its name implies, by integrating equation (2) and introducing a physical decay term, λφ, which depends on the isotope used:
TIACs were calculated for ^90Y, ^177Lu and ^86Y, with their corresponding physical decay constants: ^90Y λφ=0.01083 h^−1 (T1/2=64.0 h); ^177Lu λφ=0.00429 h^−1 (T1/2=161.52 h) and ^86Y λφ=0.04702 h^−1 (T1/2=14.74 h), respectively voiding. Radiation absorbed doses were obtained by converting time-integrated activity to absorbed doses according to the MIRD absorbed fraction methodology (Bolch et al., 2009) through the use of the OLINDA/EXM software (Stabin et al., 2005). The TIAC for the urinary bladder was obtained using the MIRD bladder model implemented in OLINDA/EXM. Input to that model requires the whole-body TIAC, which was obtained from the equation FIA(t)=A. e^(−λ^bio^t) fitted to whole-body retention kinetics. The voiding interval was set to 2 h. The TIACs were then input into OLINDA/EXM (Stabin et al., 2005), and the resulting absorbed dose per unit of radioactivity obtained for the 14 organs. The specific kidney model in OLINDA/EXM was used to obtain the renal cortex dose values. The absorbed dose from organs external to the kidney was added to the renal cortex dose calculated from the internal kidney model. The specific prostate model was used for prostate self-dose, and external dose to the bladder was added as a surrogate for the whole body to prostate dose. The self-dose component of the absorbed dose per unit activity for the salivary glands was obtained using 3D-RD Monte Carlo (EGSnrc) and a human CT with delineated salivary glands. The cross-dose component was taken by assuming the same cross-dose for a like-sized organ (pancreas).
Measured activity concentration (in Bq/cm^3) values per time point per organ were decay-corrected and divided by the baboon organ mass, determined by the CT density and volume from the drawn contours, and the injected radioactivity to obtain the fraction of initial radioactivity per gram (FIA/g) for each time point and each organ. The baboon FIA/g values were then converted to human FIA (per organ) using the related equation (Olszewski et al., 2004; Schwartz et al., 2011). The resulting human FIA values were then plotted as a function of time and fit to a bi-exponential expression and the value for the time-integrated activity coefficient (TIAC, previously known as residence time (Woodard et al., 1975)) for each source organ was calculated. […]

O=C([O-])CN1CCN(CC(=O)[O-])CCN(CC(=O)[O-])C(Cc2ccc(NC(=S)NCCCCNC(=O)CCCCCCC(=O)NCCCC[C@H](NC(=O)N[C@@H](CCC(=O)O)C(=O)O)C(=O)O)cc2)CN(CC(=O)[O-])CC1.[86Y+3] (stereo partly drawn) [^86Y-6]
Organ absorbed dose, Testes (^90Y): 3.46E−02 mGy/MBq
Organ absorbed dose, Thymus (^90Y): 3.46E−02 mGy/MBq
Organ absorbed dose, Thyroid (^90Y): 3.46E−02 mGy/MBq
Organ absorbed dose, ULI wall (^90Y): 6.29E−02 mGy/MBq
Organ absorbed dose, Urinary bladder wall (^90Y): 1.25 mGy/MBq
Organ absorbed dose, Uterus (^90Y): 3.46E−02 mGy/MBq
Time-integrated activity coefficient (residence time), Brain (^90Y): 1.79E−02 MBq-h/MBq
Time-integrated activity coefficient (residence time), Heart contents (^90Y): 3.15E−02 MBq-h/MBq
Time-integrated activity coefficient (residence time), Kidneys (^90Y): 6.43E−01 MBq-h/MBq
Time-integrated activity coefficient (residence time), Liver (^90Y): 1.77E−01 MBq-h/MBq
Time-integrated activity coefficient (residence time), Lungs (^90Y): 1.22E−01 MBq-h/MBq
Time-integrated activity coefficient (residence time), Muscle (^90Y): 6.85E−01 MBq-h/MBq
Time-integrated activity coefficient (residence time), Pancreas (^90Y): 8.42E−03 MBq-h/MBq
Time-integrated activity coefficient (residence time), Prostate (^90Y): 1.42E−03 MBq-h/MBq
Time-integrated activity coefficient (residence time), Remainder (^90Y): 4.74 MBq-h/MBq
Time-integrated activity coefficient (residence time), Renal cortex (^90Y): 5.27E−01 MBq-h/MBq
Time-integrated activity coefficient (residence time), Salivary Glands (^90Y): 4.88E−02 MBq-h/MBq
Time-integrated activity coefficient (residence time), Small intestine (^90Y): 1.32E−02 MBq-h/MBq
Time-integrated activity coefficient (residence time), Spleen (^90Y): 1.15E−02 MBq-h/MBq
Time-integrated activity coefficient (residence time), Stomach (^90Y): 8.06E−03 MBq-h/MBq
Time-integrated activity coefficient (residence time), ULI (^90Y): 2.51E−02 MBq-h/MBq
Time-integrated activity coefficient (residence time), Ur. bladder contents (^90Y): 9.54E−01 MBq-h/MBq
Organ absorbed dose, Adrenals (^177Lu): 6.96E−03 mGy/MBq
Organ absorbed dose, Brain (^177Lu): 1.48E−03 mGy/MBq
Organ absorbed dose, Breasts (^177Lu): 6.08E−03 mGy/MBq
Organ absorbed dose, Gallbladder wall (^177Lu): 6.79E−03 mGy/MBq
Organ absorbed dose, Heart wall (^177Lu): 9.54E−03 mGy/MBq
Organ absorbed dose, Kidneys (^177Lu): 2.10E−01 mGy/MBq
Organ absorbed dose, LLI wall (^177Lu): 7.06E−03 mGy/MBq
Organ absorbed dose, Liver (^177Lu): 9.37E−03 mGy/MBq
Organ absorbed dose, Lungs (^177Lu): 1.16E−02 mGy/MBq
Organ absorbed dose, Muscle (^177Lu): 3.26E−03 mGy/MBq
Organ absorbed dose, Osteogenic cells (^177Lu): 1.94E−02 mGy/MBq
Organ absorbed dose, Ovaries (^177Lu): 7.05E−03 mGy/MBq
Organ absorbed dose, Pancreas (^177Lu): 9.34E−03 mGy/MBq
Organ absorbed dose, Prostate (^177Lu): 7.94E−03 mGy/MBq
Organ absorbed dose, Red marrow (^177Lu): 5.04E−03 mGy/MBq
Organ absorbed dose, Renal cortex (^177Lu): 0.245 mGy/MBq and 2.45E−01 mGy/MBq
Organ absorbed dose, Salivary glands (^177Lu): 4.76E−02 mGy/MBq
Organ absorbed dose, Skin (^177Lu): 6.01E−03 mGy/MBq
Organ absorbed dose, Small intestine (^177Lu): 8.30E−03 mGy/MBq
Organ absorbed dose, Spleen (^177Lu): 7.16E−03 mGy/MBq
Organ absorbed dose, Stomach wall (^177Lu): 7.88E−03 mGy/MBq
Organ absorbed dose, Testes (^177Lu): 6.56E−03 mGy/MBq
Organ absorbed dose, Thymus (^177Lu): 6.29E−03 mGy/MBq
Organ absorbed dose, Thyroid (^177Lu): 6.26E−03 mGy/MBq
Organ absorbed dose, ULI wall (^177Lu): 1.16E−02 mGy/MBq
Organ absorbed dose, Urinary bladder wall (^177Lu): 2.14E−01 mGy/MBq
Organ absorbed dose, Uterus (^177Lu): 7.76E−03 mGy/MBq
Time-integrated activity coefficient (residence time), Brain (^177Lu): 1.89E−02 MBq-h/MBq
Time-integrated activity coefficient (residence time), Heart contents (^177Lu): 3.30E−02 MBq-h/MBq
Time-integrated activity coefficient (residence time), Kidneys (^177Lu): 7.24E−01 MBq-h/MBq
Time-integrated activity coefficient (residence time), Liver (^177Lu): 1.88E−01 MBq-h/MBq
Time-integrated activity coefficient (residence time), Lungs (^177Lu): 1.28E−01 MBq-h/MBq
Time-integrated activity coefficient (residence time), Muscle (^177Lu): 8.15E−01 MBq-h/MBq
Time-integrated activity coefficient (residence time), Pancreas (^177Lu): 9.00E−03 MBq-h/MBq
Time-integrated activity coefficient (residence time), Prostate (^177Lu): 1.48E−03 MBq-h/MBq
Time-integrated activity coefficient (residence time), Remainder (^177Lu): 4.84 MBq-h/MBq
Time-integrated activity coefficient (residence time), Renal cortex (^177Lu): 6.02E−01 MBq-h/MBq
Time-integrated activity coefficient (residence time), Salivary Glands (^177Lu): 4.97E−02 MBq-h/MBq
Time-integrated activity coefficient (residence time), Small intestine (^177Lu): 1.43E−02 MBq-h/MBq
Time-integrated activity coefficient (residence time), Spleen (^177Lu): 1.29E−02 MBq-h/MBq
Time-integrated activity coefficient (residence time), Stomach (^177Lu): 8.46E−03 MBq-h/MBq
Time-integrated activity coefficient (residence time), ULI (^177Lu): 2.64E−02 MBq-h/MBq
Time-integrated activity coefficient (residence time), Ur. bladder contents (^177Lu): 1.00 MBq-h/MBq
highest mean absorbed dose, renal cortex (overview text b262): 1.9 mGy per MBq

Source: US10683272B2 (THE JOHNS HOPKINS UNIVERSITY, priority 2014, dated 2020)
